Experimental data published in US20230085307A1, “PYRIDAZINONE COMPOUND AND HERBICIDE” (NISSAN CHEMICAL CORPORATION, priority 2019, published 2023).

Test system: Japanese bulrush
Assay: Test Example 1: herbicidal activity, application before weed generation under submerged conditions (Table 16, symbol B)
Type: in vivo, Japanese bulrush (Schoenoplectus juncoides)
Settings: 320 g/ha applied herbicide
How it was run: (§1)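 Submerged Wagner pots (alluvial soil, 4 cm water) sown with weed seeds and planted with 2.5-leaf rice seedlings; emulsifiable concentrate diluted in water applied to water surface on sowing day. Held in greenhouse at 25-30 °C; injury scored 0-5 by herbicidal rate after three weeks.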

Question: `Cc1nn(C)c(=O)c(-c2c(-c3ccc(OCC(F)(F)F)cc3)sc3ccc(F)cc23)c1O` [2-049] was tested. Which “Herbicidal effect on B: Japanese bulrush (grade 0-5)” value did it give?
Answer: The value was 3 (Herbicidal rate of 40% or more and less than 70%).

Question: `C=CCOc1ccc(-c2sc3ccc(F)cc3c2-c2c(O)c(C)nn(C)c2=O)cc1` [2-051] was tested. Which “Herbicidal effect on B: Japanese bulrush (grade 0-5)” value did it give?
Answer: Its value is 4 (Herbicidal rate of 70% or more and less than 90%).

Test system: oval-leafed pondweed
Assay: Test Example 1: herbicidal activity, application before weed generation under submerged conditions (Table 16, symbol C)
Type: in vivo, oval-leafed pondweed (Monochoria vaginalis)
Settings: 320 g/ha applied herbicide
How it was run: as §1

Question: With `Cc1nn(C)c(=O)c(-c2c(-c3ccc(OCC(F)(F)F)cc3)sc3ccc(F)cc23)c1O` [2-049] as the molecule, how does the “Herbicidal effect on C: oval-leafed pondweed (grade 0-5)” value read?
Answer: The value was 3 (Herbicidal rate of 40% or more and less than 70%).

Question: For `C=CCOc1ccc(-c2sc3ccc(F)cc3c2-c2c(O)c(C)nn(C)c2=O)cc1` [2-051], which “Herbicidal effect on C: oval-leafed pondweed (grade 0-5)” value is on record?
Answer: Its value is 4 (Herbicidal rate of 70% or more and less than 90%).

Test system: Japanese bulrush
Assay: Test Example 2: herbicidal activity, application during weed generation under submerged conditions (Table 17, symbol B)
Type: in vivo, Japanese bulrush (Schoenoplectus juncoides)
Settings: AAH 320 g/ha; application during weed generation, submerged conditions
How it was run: (§2)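 Effect on each weed is rated three weeks post-treatment, using the same scoring criteria as the preceding test. Plants grow from mixed-sown seed in flooded alluvial soil (4 cm water) at 25° C. to 30° C., and are treated at one to two leaves with diluted emulsion dropped onto the water.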

Question: Which “herbicidal effect rating, B: Japanese bulrush” value does the source give for `Cc1nn(C)c(=O)c(-c2c(-c3ccc(OCC(F)(F)F)cc3)sc3ccc(F)cc23)c1O` [2-049] here?
Answer: Its value is 2 (Herbicidal rate of 20% or more and less than 40%).

Question: For `C=CCOc1ccc(-c2sc3ccc(F)cc3c2-c2c(O)c(C)nn(C)c2=O)cc1` [2-051], which “herbicidal effect rating, B: Japanese bulrush” value is on record?
Answer: Its value is 3 (Herbicidal rate of 40% or more and less than 70%).

Test system: oval-leafed pondweed
Assay: Test Example 2: herbicidal activity, application during weed generation under submerged conditions (Table 17, symbol C)
Type: in vivo, oval-leafed pondweed (Monochoria vaginalis)
Settings: AAH 320 g/ha; application during weed generation, submerged conditions
How it was run: as §2

Question: Which “herbicidal effect rating, C: oval-leafed pondweed” value does the source give for `Cc1nn(C)c(=O)c(-c2c(-c3ccc(OCC(F)(F)F)cc3)sc3ccc(F)cc23)c1O` [2-049] here?
Answer: Its value is 2 (Herbicidal rate of 20% or more and less than 40%).

Question: For `C=CCOc1ccc(-c2sc3ccc(F)cc3c2-c2c(O)c(C)nn(C)c2=O)cc1` [2-051], which “herbicidal effect rating, C: oval-leafed pondweed” value is on record?
Answer: The value was 1 (Herbicidal rate of 5% or more and less than 20%).

Test system: green foxtail
Assay: Test Example 4: herbicidal effect by soil treatment (Table 19, symbol G)
Type: in vivo, green foxtail (Setaria viridis)
Settings: 320 g/ha
How it was run: (§3)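 Seeds were sown in sterilized diluvial soil and covered with about 1.5 cm of soil. An emulsion formulation diluted with water to a predetermined herbicide amount was sprayed evenly onto the soil surface. Plants grew in a greenhouse at 25° C. to 30° C., and the effect was scored three weeks after application using criteria from an earlier test.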

Question: How did the “herbicidal effect rating, G: green foxtail” value turn out when `Cc1nn(C)c(=O)c(-c2c(-c3ccc(OCC(F)(F)F)cc3)sc3ccc(F)cc23)c1O` [2-049] was run?
Answer: The value was 5 (Herbicidal rate of 90% or more (almost completely withered)).

Question: Which “herbicidal effect rating, G: green foxtail” value does the source give for `C=CCOc1ccc(-c2sc3ccc(F)cc3c2-c2c(O)c(C)nn(C)c2=O)cc1` [2-051] here?
Answer: Its value is 5 (Herbicidal rate of 90% or more (almost completely withered)).

Test system: barnyard grass
Assay: Test Example 4: herbicidal effect by soil treatment (Table 19, symbol H)
Type: in vivo, barnyard grass (Echinochloa crus-galli)
Settings: 320 g/ha
How it was run: as §3

Question: For `Cc1nn(C)c(=O)c(-c2c(-c3ccc(OCC(F)(F)F)cc3)sc3ccc(F)cc23)c1O` [2-049], which “herbicidal effect rating, H: barnyard grass” value is on record?
Answer: The value was 5 (Herbicidal rate of 90% or more (almost completely withered)).

Question: With `C=CCOc1ccc(-c2sc3ccc(F)cc3c2-c2c(O)c(C)nn(C)c2=O)cc1` [2-051] as the molecule, how does the “herbicidal effect rating, H: barnyard grass” value read?
Answer: The value was 4 (Herbicidal rate of 70% or more and less than 90%).

Test system: wild oat
Assay: Test Example 4: herbicidal effect by soil treatment (Table 19, symbol I)
Type: in vivo, wild oat (Avena fatua)
Settings: 320 g/ha
How it was run: as §3

Question: For `Cc1nn(C)c(=O)c(-c2c(-c3ccc(OCC(F)(F)F)cc3)sc3ccc(F)cc23)c1O` [2-049], which “herbicidal effect rating, I: wild oat” value is on record?
Answer: Its value is 0 (Herbicidal rate of 5% or less (almost no effect)).

Question: `C=CCOc1ccc(-c2sc3ccc(F)cc3c2-c2c(O)c(C)nn(C)c2=O)cc1` [2-051] was tested. Which “herbicidal effect rating, I: wild oat” value did it give?
Answer: The value was 0 (Herbicidal rate of 5% or less (almost no effect)).

Test system: redroot pigweed
Assay: Test Example 4: herbicidal effect by soil treatment (Table 19, symbol N)
Type: in vivo, redroot pigweed (Amaranthus retroflexus)
Settings: 320 g/ha
How it was run: as §3

Question: With `Cc1nn(C)c(=O)c(-c2c(-c3ccc(OCC(F)(F)F)cc3)sc3ccc(F)cc23)c1O` [2-049] as the molecule, how does the “herbicidal effect rating, N: redroot pigweed” value read?
Answer: The value was 5 (Herbicidal rate of 90% or more (almost completely withered)).

Question: For `C=CCOc1ccc(-c2sc3ccc(F)cc3c2-c2c(O)c(C)nn(C)c2=O)cc1` [2-051], which “herbicidal effect rating, N: redroot pigweed” value is on record?
Answer: The value was 5 (Herbicidal rate of 90% or more (almost completely withered)).

Test system: chickweed
Assay: Test Example 4: herbicidal effect by soil treatment (Table 19, symbol P)
Type: in vivo, common chickweed (Stellaria media)
Settings: 320 g/ha
How it was run: as §3

Question: With `Cc1nn(C)c(=O)c(-c2c(-c3ccc(OCC(F)(F)F)cc3)sc3ccc(F)cc23)c1O` [2-049] as the molecule, how does the “herbicidal effect rating, P: chickweed” value read?
Answer: Its value is 5 (Herbicidal rate of 90% or more (almost completely withered)).

Question: How did the “herbicidal effect rating, P: chickweed” value turn out when `C=CCOc1ccc(-c2sc3ccc(F)cc3c2-c2c(O)c(C)nn(C)c2=O)cc1` [2-051] was run?
Answer: The value was 1 (Herbicidal rate of 5% or more and less than 20%).

Test system: southern crabgrass
Assay: Test Example 5: herbicidal effect by foliage application, plastic box (Table 20, symbol F)
Type: in vivo, southern crabgrass (Digitaria ciliaris)
Settings: foliage application, 320 g/ha, evaluated three weeks after application
How it was run: (§4)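 Plants sown in sterilized diluvial soil and grown 14 days in a greenhouse at 25° C to 30° C, then sprayed on the foliage with the compound's emulsion diluted in water to a predetermined herbicide amount. Injury to weeds and crops scored three weeks after application on a visual rating scale.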

Question: `Cc1nn(C)c(=O)c(-c2c(-c3ccc(OCC(F)(F)F)cc3)sc3ccc(F)cc23)c1O` [2-049] was tested. Which “herbicidal effect on F: southern crabgrass” value did it give?
Answer: The value was 5 (Herbicidal rate of 90% or more (almost completely withered)).

Question: `C=CCOc1ccc(-c2sc3ccc(F)cc3c2-c2c(O)c(C)nn(C)c2=O)cc1` [2-051] was tested. Which “herbicidal effect on F: southern crabgrass” value did it give?
Answer: Its value is 5 (Herbicidal rate of 90% or more (almost completely withered)).

Test system: green foxtail
Assay: Test Example 5: herbicidal effect by foliage application, plastic box (Table 20, symbol G)
Type: in vivo, green foxtail (Setaria viridis)
Settings: foliage application, 320 g/ha, evaluated three weeks after application
How it was run: as §4

Question: For `Cc1nn(C)c(=O)c(-c2c(-c3ccc(OCC(F)(F)F)cc3)sc3ccc(F)cc23)c1O` [2-049], which “herbicidal effect on G: green foxtail” value is on record?
Answer: The value was 5 (Herbicidal rate of 90% or more (almost completely withered)).

Question: For `C=CCOc1ccc(-c2sc3ccc(F)cc3c2-c2c(O)c(C)nn(C)c2=O)cc1` [2-051], which “herbicidal effect on G: green foxtail” value is on record?
Answer: Its value is 5 (Herbicidal rate of 90% or more (almost completely withered)).

Test system: barnyard grass
Assay: Test Example 5: herbicidal effect by foliage application, plastic box (Table 20, symbol H)
Type: in vivo, barnyard grass (Echinochloa crus-galli)
Settings: foliage application, 320 g/ha, evaluated three weeks after application
How it was run: as §4

Question: How did the “herbicidal effect on H: barnyard grass” value turn out when `Cc1nn(C)c(=O)c(-c2c(-c3ccc(OCC(F)(F)F)cc3)sc3ccc(F)cc23)c1O` [2-049] was run?
Answer: The value was 5 (Herbicidal rate of 90% or more (almost completely withered)).

Question: `C=CCOc1ccc(-c2sc3ccc(F)cc3c2-c2c(O)c(C)nn(C)c2=O)cc1` [2-051] was tested. Which “herbicidal effect on H: barnyard grass” value did it give?
Answer: The value was 5 (Herbicidal rate of 90% or more (almost completely withered)).

Test system: wild oat
Assay: Test Example 5: herbicidal effect by foliage application, plastic box (Table 20, symbol I)
Type: in vivo, wild oat (Avena fatua)
Settings: foliage application, 320 g/ha, evaluated three weeks after application
How it was run: as §4

Question: With `Cc1nn(C)c(=O)c(-c2c(-c3ccc(OCC(F)(F)F)cc3)sc3ccc(F)cc23)c1O` [2-049] as the molecule, how does the “herbicidal effect on I: wild oat” value read?
Answer: Its value is 5 (Herbicidal rate of 90% or more (almost completely withered)).

Question: Which “herbicidal effect on I: wild oat” value does the source give for `C=CCOc1ccc(-c2sc3ccc(F)cc3c2-c2c(O)c(C)nn(C)c2=O)cc1` [2-051] here?
Answer: The value was 4 (Herbicidal rate of 70% or more and less than 90%).

Test system: windgrass
Assay: Test Example 5: herbicidal effect by foliage application, plastic box (Table 20, symbol L)
Type: in vivo, windgrass (Apera spica-venti)
Settings: foliage application, 320 g/ha, evaluated three weeks after application
How it was run: as §4

Question: `Cc1nn(C)c(=O)c(-c2c(-c3ccc(OCC(F)(F)F)cc3)sc3ccc(F)cc23)c1O` [2-049] was tested. Which “herbicidal effect on L: windgrass” value did it give?
Answer: Its value is 5 (Herbicidal rate of 90% or more (almost completely withered)).

Question: With `C=CCOc1ccc(-c2sc3ccc(F)cc3c2-c2c(O)c(C)nn(C)c2=O)cc1` [2-051] as the molecule, how does the “herbicidal effect on L: windgrass” value read?
Answer: Its value is 5 (Herbicidal rate of 90% or more (almost completely withered)).

Test system: chickweed
Assay: Test Example 5: herbicidal effect by foliage application, plastic box (Table 20, symbol P)
Type: in vivo, common chickweed (Stellaria media)
Settings: foliage application, 320 g/ha, evaluated three weeks after application
How it was run: as §4

Question: With `Cc1nn(C)c(=O)c(-c2c(-c3ccc(OCC(F)(F)F)cc3)sc3ccc(F)cc23)c1O` [2-049] as the molecule, how does the “herbicidal effect on P: chickweed” value read?
Answer: Its value is 5 (Herbicidal rate of 90% or more (almost completely withered)).

Question: `C=CCOc1ccc(-c2sc3ccc(F)cc3c2-c2c(O)c(C)nn(C)c2=O)cc1` [2-051] was tested. Which “herbicidal effect on P: chickweed” value did it give?
Answer: The value was 5 (Herbicidal rate of 90% or more (almost completely withered)).

Test system: persian speedwell
Assay: Test Example 5: herbicidal effect by foliage application, plastic box (Table 20, symbol R)
Type: in vivo, Persian speedwell (Veronica persica)
Settings: foliage application, 320 g/ha, evaluated three weeks after application
How it was run: as §4

Question: With `Cc1nn(C)c(=O)c(-c2c(-c3ccc(OCC(F)(F)F)cc3)sc3ccc(F)cc23)c1O` [2-049] as the molecule, how does the “herbicidal effect on R: persian speedwell” value read?
Answer: Its value is 5 (Herbicidal rate of 90% or more (almost completely withered)).

Question: How did the “herbicidal effect on R: persian speedwell” value turn out when `C=CCOc1ccc(-c2sc3ccc(F)cc3c2-c2c(O)c(C)nn(C)c2=O)cc1` [2-051] was run?
Answer: Its value is 5 (Herbicidal rate of 90% or more (almost completely withered)).
